Data from article PMC9841576, “Characterisation of C101248: A novel selective THIK-1 channel inhibitor for the modulation of microglial NLRP3-inflammasome” (Neuropharmacology, 2023).

Assays:
[1] = target: T1, TREK-1 (Homo sapiens, UniProt O95069); assay: FLIPR thallium influx assay, HEK-hTREK-1 cells; type: cell-based; details: HEK-hTREK-1, at 30 μM, compared to TPA controls; read-out: inhibition of constitutive activity
T1 construct: expressed in transfected cells
Experimental: HEK-293 cells were transfected with human THIK-1, TREK-1, TWIK-2, or mouse THIK-1 cDNA cloned into pcDNA3.1, using either Fugene HD transfection reagent (Promega) or electroporation (MaxCyte STX instrument). Cells stably expressing the relevant genes were selected based on resistance to 500 μg/ml geneticin (Gibco). For human THIK-1 and TWIK-2 expressing cells, monoclonal lines were isolated by limited dilution cloning; mouse THIK-1 and human TREK-1 expressing cells were maintained as polyclonal pools. The HEK-293 pools and monoclones stably expressing the relevant genes were maintained in DMEM (Life Technologies), supplemented with 10% FCIII (HyClone, Fetal clone III) and 500 μg/ml geneticin. A CHO-Kv2.1 cell line was purchased from Millipore (accession NM_004975) and maintained in F12 (Life Technologies), supplemented with 10% FCSIII (Thermo Scientific) and 500 μg/ml geneticin (Life Technologies). […]
A fluorescence-based thallium influx assay (Molecular Devices potassium assay kit) was used to monitor channel activity. […] Using a fluorescent imaging plate reader (FLIPR) tetra plate reader, 15 μl thallium stimulus solution was added to the cell plate and the fluorescence signal recorded every second for 1 min (excitation: 470–495 nm, emission: 515–575 nm).

[2] = target: T2, THIK-1 K+ currents in microglia (Mus musculus, UniProt Q8R1P5); assay: Whole-cell patch clamp of microglia in acute hippocampal slices, wild-type mice; type: cell-based
T2 construct: To study the effect of C10248 in native brain tissue; from tissue; host or cells: microglia in acute hippocampal slices of 3-4 month old Cx3Cr1-GFP mice
T2 sequence (Q8R1P5 whole entry): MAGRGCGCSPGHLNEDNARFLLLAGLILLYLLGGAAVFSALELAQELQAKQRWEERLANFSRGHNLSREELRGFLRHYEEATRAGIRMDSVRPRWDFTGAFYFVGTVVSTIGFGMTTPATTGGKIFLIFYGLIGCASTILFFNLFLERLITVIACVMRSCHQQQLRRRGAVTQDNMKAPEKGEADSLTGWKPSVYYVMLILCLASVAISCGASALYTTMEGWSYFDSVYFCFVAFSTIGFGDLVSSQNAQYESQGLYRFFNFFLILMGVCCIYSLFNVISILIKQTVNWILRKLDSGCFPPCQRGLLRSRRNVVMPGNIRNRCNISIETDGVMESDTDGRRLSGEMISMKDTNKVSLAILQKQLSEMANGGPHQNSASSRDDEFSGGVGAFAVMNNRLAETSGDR
Experimental: Acute hippocampal slices (300 μm thick), from 3 to 4 months old mice, were prepared using a specially adapted protective slicing solution ([Ting et al., 2014]) containing (mM) 93 choline chloride, 20 HEPES, 30 NaHCO3, 2.5 KCl, 0.5 CaCl2, 10 MgCl2, 1.2 NaH2PO4, 25 glucose, 1 kynurenic acid, 5 Na-ascorbate, 3 Na-pyruvate, pH adjusted to 7.4, bubbled with 95% O2/5% CO2 and cooled at <4 °C, and a recovery solution containing (mM) 92 NaCl, 20 HEPES, 30 NaHCO3, 2.5 KCl, 2 CaCl2, 1 MgCl2, 1.2 NaH2PO4, 25 glucose, 1 kynurenic acid, 5 Na-ascorbate, 3 Na-pyruvate, pH set to 7.4 and bubbled with 95% O2/5% CO2
Immediately after slicing, slices were placed for 13 min in warm (33–35 °C) slicing solution and then transferred to recovery solution at room temperature until experimental usage. […] Slices were perfused with bicarbonate-buffered solution, at 34–36 °C for all experiments, containing (mM) 124 NaCl, 2.5 KCl, 26 NaHCO3, 1 NaH2PO4, 2 CaCl2, 1 MgCl2, 10 glucose, bubbled with 95% O2/5% CO2. Microglia were whole-cell clamped with electrodes containing K-gluconate based solution, comprising (mM) 130 K-glu, 4 NaCl, 1 CaCl2, 10 HEPES, 10 EGTA, 4 MgATP, 0.5 Na2GTP, pH set to 7.2 with KOH and osmolarity adjusted to […]. […] Currents were filtered at 1 kHz, digitized (10 kHz) and analysed off-line using pClamp10 software.

T1 sequence (O95069 whole entry): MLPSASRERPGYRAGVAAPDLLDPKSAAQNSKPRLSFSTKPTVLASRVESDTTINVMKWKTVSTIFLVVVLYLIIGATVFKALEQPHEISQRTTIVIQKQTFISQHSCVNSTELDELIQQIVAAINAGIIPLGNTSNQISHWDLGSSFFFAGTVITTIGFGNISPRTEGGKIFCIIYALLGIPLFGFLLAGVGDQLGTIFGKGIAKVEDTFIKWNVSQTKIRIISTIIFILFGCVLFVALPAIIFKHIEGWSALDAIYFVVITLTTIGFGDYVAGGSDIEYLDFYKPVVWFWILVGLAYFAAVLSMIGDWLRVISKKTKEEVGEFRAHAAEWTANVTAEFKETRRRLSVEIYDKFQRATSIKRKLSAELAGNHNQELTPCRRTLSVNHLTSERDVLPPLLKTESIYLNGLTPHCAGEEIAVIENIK

Nc1nonc1-c1nc2ccccc2n1Cc1ccncc1 [C101248]
inhibition at 30 µM [1]: 18% | effect on microglial resting membrane potential ([2]; 5 μM, current-clamp, no externally applied ATP): significantly depolarised | effect on 100 μM ATP-evoked THIK-1 K+ currents ([2]; 0.05, 0.5 and 5 μM, microglia voltage-clamped at 0 mV): dose-dependently inhibited
